We go through five compounds from patent publication US12331051B2 (priority 2021, dated 2025).

The nature of data set [1]: DVS hygroscopicity. The format is physicochemical. The following applies: for DVS (hold at 75% RH) mass increase: crude material, 75% relative humidity, ~5 hr run time.
Data set [2] has as its system stress-naïve mice. Nature of the data set: FST and OFT with volinanserin pre-treatment. The format is in vivo, mouse. As to the method: The 5-HT2A receptor plays a key role in the function of many serotonergic psychedelics and their derivatives (Jaster et al., Psychopharmacology, 2022, 239, p1665-1677.). […] To further investigate the role of the 5-HT2A receptor in the “E559 polymorph” effects in these in vivo models, the open field test and forced swim test in mice was repeated as described in Example 14, with and without volinanserin, a selective 5-HT2A antagonist, treatment. Briefly, volnanserin (0.125 mg/kg) was administered (IP injection) 1 hour prior to the administration of the “E559 polymorph” (1 mg/kg, IP) to stress-naïve mice, and forced swim test was performed 24 hours later as described in Example 14. In brief, FIG. 26A represents immobility time in the forced swim test of female mice (n=12/group) pre-treated with vehicle or volinanserin, followed by either vehicle (saline) or “E559 polymorph” (1 mg/kg). […] FIG. 26C represents distance travelled in the open field Measured 24 hours after treatment (as in FIG. 26A) in female mice (n=12). […] Horizontal lines in FIG. 26 represent the mean±standard error of the mean (S.E.M.) and asterisks indicate statistical significances.

Data set [3] relates to primary cortical neurons (rats). Nature of the data set: In vitro dendritogenesis assay with volinanserin pre-treatment. The format is cell-based, rat. As to the method: The 5-HT2A receptor plays a key role in the function of serotonergic psychedelics and their derivatives (Jaster, et al., Psychopharmacology, 2022, 239, p1665-1677.). […] The in vitro dendritogenesis assay was repeated in the presence or absence of a selective 5-HT2A antagonist volinanserin. In brief, FIG. 20A represents tracings of the cortical neurons (DIV 3) treated with volinanserin (Vol) at […]) followed by either vehicle or “E559 polymorph” (1 μM). Sholl radii are spaced 10 μm. […] FIG. 20C represents the total dendritic arbour length for neurons treated in FIG. 20A. In FIGS. 20B and 20C, violin plots represent the distribution of individual cells (n=15/treatment), while dots represent the averages per independent experiment (n=5/treatment). In this study primary cortical neurons (rats) were treated with volinanserin (0.1-1 μM), a selected 5-HT2A receptor antagonist, prior to the administration of the “polymorph HT compound” (1 μM 2-Br-LSD).

For data set [4], the target named is 5-HT6 (Homo sapiens, UniProt P50406). The data set is described as follows: Functional assay (cAMP). The format is cell-based. On the set-up: expressed in transfected cells; host or cells: HEK-293. The protocol:
(§1) Neuro-receptor binding and functional effects of the “E559 polymorph” was examined by analyzing binding affinity [Ki (nM)], functional agonist activity [EC50 (nM)], and functional antagonist activity [IC50 (nM)] against a panel of key receptors in neurophysiological disorders. Binding and functional assays were performed at “E559 polymorph” concentrations of 0.0003, 0.003, 0.01, 0.03, 0.1, 0.3, 1, and 10 μM. In binding assays, cell membrane homogenates, expressing each receptor target, were incubated with the corresponding radio-ligand in absence or presence of several concentration of the “E559 polymorph” compound. The measurement of binding affinity of the “E559 polymorph” is represented in TABLE XIII by Ki (nM) which was calculated as percent inhibition of the binding of a radioactively labeled reference ligand at each receptor. In functional assays the HEK-293 cells expressing each receptor target were suspended in buffer and distribute in microplates and incubated for 30 minutes at room temperature or 37° C. in the presence of buffer alone (basal control), the reference agonist or antagonist, or the “E559 polymorph. Following incubation, the cells were lysed and the appropriate fluorescent probe (Ca2+ flux, cAMP, or IP1) were added for 60 minutes to measure the fluorescence transfer at the appropriate wavelength using a microplate reader. The cellular agonist effect (EC50) was calculated as a percent of control response to a known reference agonist and the cellular antagonist effect (IC50) was calculated as a percent inhibition of control reference agonist response for each receptor.
(§2) The functional agonist activity [EC50 (nM), Emax], and functional antagonist activity [IC50 (nM)] of the 5R:8S stereoisomer of the “E559 polymorph” (5R:8S E558) was compared with the “E559 polymorph” (a 5R:8R stereoisomer) at selected serotonin receptors. The assays were performed as described in Example 6.

In data set [5] the target is T1, Serotonin 2B receptor (5-HT2BR) (Homo sapiens, UniProt P41595).
T1 construct: expressed in transfected cells; host or cells: HEK-293
Nature of the data set: Functional assay in HEK-293 cells (IP1). It counts as cell-based. As to the method: as §1, §2

Data set [6] addresses T2, 5-HT2A receptor (5-HT2AR) (Homo sapiens, UniProt P28223).
T2 construct: expressed in transfected cells; host or cells: HEK-293
The data set is described as follows: Functional assay in HEK-293 cells (IP1). The format is cell-based. The protocol:
as §1, §2

For data set [7], the target named is T3, 5-HT1E (Homo sapiens, UniProt P28566).
T3 construct: expressed in transfected cells; host or cells: HEK-293
Nature of the data set: Functional assay (Arrestin). It counts as cell-based.

Data set [8] addresses T4, 5-HT1F (Homo sapiens, UniProt P30939).
T4 construct: expressed in transfected cells; host or cells: HEK-293
T4 sequence (P30939 1-366): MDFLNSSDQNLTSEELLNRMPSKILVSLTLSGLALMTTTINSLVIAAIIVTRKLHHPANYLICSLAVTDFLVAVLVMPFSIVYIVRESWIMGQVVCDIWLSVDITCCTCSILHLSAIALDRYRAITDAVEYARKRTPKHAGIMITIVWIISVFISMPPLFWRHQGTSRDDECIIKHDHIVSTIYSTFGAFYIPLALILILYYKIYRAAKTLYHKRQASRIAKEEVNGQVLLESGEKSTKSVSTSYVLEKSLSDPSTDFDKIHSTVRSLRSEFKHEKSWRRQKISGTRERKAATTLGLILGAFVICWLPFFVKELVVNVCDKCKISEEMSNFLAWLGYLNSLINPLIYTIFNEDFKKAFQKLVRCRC
The data set is described as follows: Functional assay (cAMP). It counts as cell-based. As to the method: as §1, §2

In data set [9] the target is T5, Serotonin 1B receptor (5-HT1BR) (Homo sapiens, UniProt P28222).
T5 construct: expressed in transfected cells; host or cells: HEK-293
Nature of the data set: Functional assay in HEK-293 cells (cAMP). The following applies: Functional Assay (agonist) EC50 (nM), cAMP; ligand 5-HT. It counts as cell-based. As to the method: as §1, §2

Data set [10] deals with T6, 5-HT2A receptor (Homo sapiens, UniProt P28223).
Data set [11] has as its system mice. Nature of the data set: Tolerance after repeated dosing, HTR to DOI challenge. The format is in vivo, mouse. The following applies: IP once daily 7 days: DOI 10 mg/kg/day, E559 polymorph 3 mg/kg/day; DOI 1 mg/kg challenge 24 hours later. The protocol:
To determine if repeated dosing of the “E559 polymorph” can induce tolerance in vivo, HTR experiment described in Examples 2 and 5 was repeated where mice received IP injections of vehicle, DOI (10 mg/kg/day), or the “E559 polymorph” (3 mg/kg/day; once daily for 7 consecutive days) and were then challenged with DOI (1 mg/kg) 24 hours later. Data shown in FIG. 22 are group means±standard deviation for the entire 60 minutes test session. Asterisks indicate statistical significances compared to the Vehicle control (Vehicle was saline).

The target of data set [12] is T6, 5-HT2A receptor. The data set is described as follows: 5-HT2A receptor internalization, NanoBit HiBit-fused 5-HT2A in HEK293T cells. The format is cell-based. On the set-up: expressed in transfected cells; host or cells: HEK293T. The protocol:
To assess the ability of the “E559 polymorph” to induce β-arrestin-mediated 5-HT2A receptor internalization in vitro, the loss of surface expression of 5-HT2A receptor was measured using a NanoBit N-terminal HiBit-fused 5-HT2A construct cloned in HEK293T cells (1:15 ratio 5-HT2A: β-arrestin2). In brief, cells were treated with serial dilution of test compounds for 1 hour or a specified time point.
For orientation: The HiBiT peptide binds its large partner to form an active luciferase.

The mark [13] stands for this setting: cAMP, ligand 5-HT, read-out: Functional Assay (agonist) Emax.

Where only a bound is given, the exact number is not on record here.

T2 sequence (P28223 whole entry): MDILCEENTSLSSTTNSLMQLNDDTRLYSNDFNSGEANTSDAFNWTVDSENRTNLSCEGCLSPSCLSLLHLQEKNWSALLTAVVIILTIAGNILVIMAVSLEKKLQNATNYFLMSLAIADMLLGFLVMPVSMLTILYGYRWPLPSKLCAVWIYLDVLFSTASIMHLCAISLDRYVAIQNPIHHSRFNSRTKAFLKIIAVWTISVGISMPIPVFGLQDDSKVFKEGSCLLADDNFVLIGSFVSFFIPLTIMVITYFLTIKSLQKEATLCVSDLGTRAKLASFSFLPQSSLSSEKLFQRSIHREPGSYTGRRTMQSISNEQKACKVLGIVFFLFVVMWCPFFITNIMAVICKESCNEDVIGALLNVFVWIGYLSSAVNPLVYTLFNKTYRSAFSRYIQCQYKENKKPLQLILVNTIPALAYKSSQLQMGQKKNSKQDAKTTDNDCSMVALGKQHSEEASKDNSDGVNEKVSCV
T6 sequence (P28223 whole entry): as above
T1 sequence (P41595 whole entry): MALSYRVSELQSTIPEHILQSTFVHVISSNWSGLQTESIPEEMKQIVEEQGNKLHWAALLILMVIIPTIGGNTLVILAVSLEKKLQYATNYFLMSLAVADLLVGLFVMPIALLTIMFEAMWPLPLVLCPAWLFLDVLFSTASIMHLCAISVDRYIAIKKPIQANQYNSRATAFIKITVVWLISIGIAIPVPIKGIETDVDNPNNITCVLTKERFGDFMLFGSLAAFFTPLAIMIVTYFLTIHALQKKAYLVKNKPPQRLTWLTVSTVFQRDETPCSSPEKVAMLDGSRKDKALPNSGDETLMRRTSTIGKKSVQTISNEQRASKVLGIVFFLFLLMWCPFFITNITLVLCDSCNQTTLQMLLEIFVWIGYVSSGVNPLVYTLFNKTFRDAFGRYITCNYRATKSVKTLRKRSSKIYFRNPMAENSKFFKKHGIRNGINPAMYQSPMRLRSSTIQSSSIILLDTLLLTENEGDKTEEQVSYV
Sequence of 5-HT6 (P50406 whole entry): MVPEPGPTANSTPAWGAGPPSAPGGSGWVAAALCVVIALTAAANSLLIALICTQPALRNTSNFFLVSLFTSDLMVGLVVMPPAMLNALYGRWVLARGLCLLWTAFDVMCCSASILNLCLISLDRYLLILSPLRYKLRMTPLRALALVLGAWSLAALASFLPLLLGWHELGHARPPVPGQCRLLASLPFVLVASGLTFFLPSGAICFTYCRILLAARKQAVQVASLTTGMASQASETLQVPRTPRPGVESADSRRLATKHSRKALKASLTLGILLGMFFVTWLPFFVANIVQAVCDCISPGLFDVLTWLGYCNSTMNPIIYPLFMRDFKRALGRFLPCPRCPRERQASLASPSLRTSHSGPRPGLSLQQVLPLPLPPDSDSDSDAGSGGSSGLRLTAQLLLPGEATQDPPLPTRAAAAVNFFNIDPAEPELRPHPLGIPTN
T3 sequence (P28566 whole entry): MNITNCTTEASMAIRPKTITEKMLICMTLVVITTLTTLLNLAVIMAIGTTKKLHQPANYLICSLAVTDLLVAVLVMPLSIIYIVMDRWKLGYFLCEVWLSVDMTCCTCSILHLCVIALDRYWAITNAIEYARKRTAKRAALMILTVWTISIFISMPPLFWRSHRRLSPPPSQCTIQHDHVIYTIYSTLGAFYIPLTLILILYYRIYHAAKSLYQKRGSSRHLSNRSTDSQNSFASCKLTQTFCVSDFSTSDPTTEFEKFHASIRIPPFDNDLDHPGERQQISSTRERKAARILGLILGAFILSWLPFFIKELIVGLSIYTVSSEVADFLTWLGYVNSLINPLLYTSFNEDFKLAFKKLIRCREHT
T5 sequence (P28222 whole entry): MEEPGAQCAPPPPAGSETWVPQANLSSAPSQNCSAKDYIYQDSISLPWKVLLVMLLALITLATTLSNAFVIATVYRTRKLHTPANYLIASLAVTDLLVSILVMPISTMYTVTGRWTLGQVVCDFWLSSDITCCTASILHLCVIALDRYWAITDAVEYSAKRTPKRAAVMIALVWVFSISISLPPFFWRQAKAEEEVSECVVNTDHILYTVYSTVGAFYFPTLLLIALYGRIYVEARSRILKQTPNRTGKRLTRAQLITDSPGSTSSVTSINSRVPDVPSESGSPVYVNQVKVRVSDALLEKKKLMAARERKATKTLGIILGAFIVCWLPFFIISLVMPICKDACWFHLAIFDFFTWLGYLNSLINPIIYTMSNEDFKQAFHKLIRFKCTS

With `CCN(CC)C(=O)[C@@H]1C=C2c3cccc4[nH]c(Br)c(c34)C[C@H]2N(C)C1` [E560, (5R, 8R)-2-Bromo-9,10-didehydro-N,N-diethyl-6-methylergoline-8-carboxamide hemi-L-tartrate], the “DVS (0-90-0 2 cycles) max water absorbed” value in [1] (90% RH exposure, ~24 hr run time, listed as L-Tartrate) is “absorbed mad 12%”. Also, the “DVS (hold at 75% RH) mass increase” value is on record as 6.3% mass increase in data set [1] (listed as L-Tartrate) and “about 6.3%” in data set [1] (listed as L-tartrate salt).
With `COc1cccc([C@H](O)C2CCN(CCc3ccc(F)cc3)CC2)c1OC` [volinanserin], in [2] (volinanserin 0.125 mg/kg IP 1 hour before E559 polymorph 1 mg/kg IP, female and male mice), the “effect of volinanserin pre-treatment on E559 polymorph induced decrease in immobility in FST” value is recorded as “blocked the decrease in immobility”. Also, the “locomotion in the OFT” value in [2] (volinanserin alone or with E559 polymorph, female or male mice) is recorded as “did not affect locomotion in the OFT in female or male mice”. The “effect of volinanserin on E559 polymorph induced increase in total dendrite length” value in data set [3] (E559 polymorph 1 μM) is “blocked the increase in total dendrite length”. Further, the “effect of volinanserin pre-treatment on E559 polymorph (1 μM) induced dendritic arbor complexity (Sholl intersections)” value in [3] (every volinanserin concentration tested) is reported as “blocked the effect”. In [3] (volinanserin followed by vehicle), the “dendritic arbor complexity, volinanserin alone” value is recorded as “did not change any parameters linked to dendritic arbor complexity”.
Regarding `CCN(CC)C(=O)[C@H]1C=C2c3cccc4[nH]c(Br)c(c34)C[C@H]2N(C)C1` [E558, (5R, 8S)-2-Bromo-9,10-didehydro-N,N-diethyl-6-methylergoline-8-carboxamide], the EC50 was 0.099 µM in [4]; greater than 10 µM in data set [5]; 0.2 µM in data set [6]; greater than 10 µM in data set [7]; 3.12 µM in data set [8]; greater than 10000 nM in data set [9]. In addition, the Emax stood at 71% in data set [4] (setting [13]); 55% in data set [6] (HEK293, IP1, ligand 5-HT, read-out: Functional Assay (agonist) Emax); 66.9% in data set [8] (setting [13]). Further, the IC50 in data set [5] and in data set [6] was greater than 10 µM in each case.
Regarding `COc1cc(CC(C)N)c(OC)cc1I` (stereo not drawn) [DOI, 2,5-Dimethoxy-4-iodoamphetamine], the “β-Arrestin2 recruitment at the 5-HT2A receptor” value in [10] is “strong recruiters of β-Arrestin2”. In data set [11], the “tolerance (tachyphylaxis) after repeated dosing, HTR count on DOI challenge” value is recorded as “induced a significant degree of tachyphylaxis/tolerance”. The “internalization of the 5-HT2A receptor (loss of surface expression)” value in [12] is “potent internalization”.
Regarding `NCCc1c[nH]c2ccc(O)cc12` [5-HT, serotonin], the “β-Arrestin2 recruitment at the 5-HT2A receptor” value in [10] is listed as “strong recruiters of β-Arrestin2”. Further, the “internalization of the 5-HT2A receptor (loss of surface expression)” value in [12] is “potent internalization”.

One may read the EC50 as the midpoint of the concentration-response curve. Read a low EC50 as a more potent agent. By Emax is commonly meant the maximal effect, on the per cent scale that the assay sets. Broadly, the IC50 is the point on the concentration scale where inhibition reaches its midpoint. Low values mean greater potency, high ones weaker potency.
